SMILES strings stand for the structures.

Data set [1] relates to cell lines. Conditions: transfection of certain cell lines, compared with DOTMA; cited from earlier work.
Data set [2] has as its system cell lines. Conditions: certain cell lines, compared with DOTMA; cited from earlier work.
For data set [3], the system named is anti-CAT immune response in mice. The experiment in a line: ELISA and Western blot after IP immunization with CAT plasmids with different promoters (Example 3). Conditions: compared with LIPOFECTACE
The data set is classed as in vivo. As to the method:
A CAT enzyme-linked immunoassay (ELISA) was used to determine the presence of CAT antibodies in mouse sera samples. Microwell titer plates were prepared by incubating each well of the plate with 1 microgram/ml of CAT in 0.1 M sodium carbonate buffer, pH 9.5. The plates were incubated for 18 hours at 4ΕC. The wells were blocked with 0.2% ovalbumin dissolved in phosphate-buffered saline (PBS) with 0.1% Tween-20 (dilution buffer). Samples were diluted in the dilution buffer, and 200 microliters were added to a well on the plate. The plate was sealed, and then incubated for 60 minutes at 37 degrees C. Following a wash, the plates were incubated with 0.1 micrograms/ml goat anti-mouse IgG—horseradish peroxidase (HRP) conjugate. The plate was sealed and then incubated for 30 minutes at 37 degrees C. Following a second wash, the plates were developed with 3,3′,5,5′-tetramethylbenzidine substrate at room temperature. The reaction was stopped by adding 2N sulfuric acid.
The results were analyzed using Western Blot analysis. Nitrocellulose sheets were prepared by applying purified CAT protein to the nitrocellulose (0.1 micrograms CAT protein/cm nitrocellulose). Sera samples were diluted into dilution buffer and 2 ml were added to each nitrocellulose strip. The strips were incubated for 90 minutes with rocking at room temperature. […]
In general terms: In an ELISA, binding on a coated surface is turned into a signal by an enzyme label.

Take `CC(C)CCC[C@@H](C)[C@H]1CC[C@H]2[C@@H]3CC=C4C[C@@H](OC(=O)NCCN(C)C)CC[C@]4(C)[C@H]3CC[C@]12C` [DC-Chol]: the toxicity result in data set [1] was “lower toxicity”. Also, in data set [2], the transfection efficiency result is recorded as “more efficient transfection”.

Regarding `CCCCCCCCCCCCCCCCCCN(CCCCCCCCCCCCCCCCCC)C(=O)CNC(=O)C(CCCNCCCN)NCCCN` (stereo not shown) [DOGS, 5-carboxylspermylglycine dioctadecylamide], in data set [1], the toxicity result is on record as “less toxic than DOTMA”. The transfection efficiency entry in data set [2] is listed as “more efficient”.

Consider `CCCCCCCCCCCCCCCC(=O)OCC(COP(=O)(O)OCCNC(=O)C(CCCNCCCN)NCCCN)OC(=O)CCCCCCCCCCCCCCC` (stereo not shown) [DPPES, dipalmitoylphosphatidylethanolamine 5-carboxyspermylamide], for which the toxicity result in data set [1] is “less toxic than DOTMA”. Further, the transfection efficiency result in data set [2] was “more efficient”.

`CCCCCCCCC=CCCCCCCCCOCC(C[N+](C)(C)CCBr)OCCCCCCCCC=CCCCCCCCC.[Br-]` (stereo not shown) [bromo lipid, 1-propanaminium, N-[2(2-bromo)ethyl]-N,N-dimethyl-2,3-bis(9-octadecenyloxy)-bromide]: in data set [3], the “consistency in generating an immune response (ELISA)” value is listed as “more consistent results”.

The values are drawn from patent US7166298B2, “Genetic immunization with cationic lipids” (Invitrogen Corporation, priority 1993, dated 2007).
